Patent US9464064B2, “HCV helicase inhibitors and methods of use thereof” (University of Kansas, priority 2011, dated 2016)
Like-named read-outs stand apart in the source and are kept apart here.

Key:
[1] = system: HCV RLuc subgenomic replicon (genotype 1b) in Huh-7.5 cells; experiment: HCV subgenomic replicon assay (Renilla luciferase); format: cell-based, hepatitis C virus
From the text: An HCV Renilla luciferase reporter construct (HCV RLuc; Huang, et al. (2006) Hepatology 43:81-90) was used to measure the effect of each compound on cellular HCV RNA levels. In HCV RLuc, the HCV internal ribosome entry site (IRES) drives the translation of the neomycin and Renilla luciferase genes while the HCV nonstructural proteins (NS3 to NS5B) are translated from the Encephalomyocarditis virus IRES (Huang, et al. (2006) supra). The plasmid DNA was cleaved with ScaI, purified by phenol/chloroform extraction followed by ethanol precipitation, and used as template for RNA transcription using […] T7 RNA transcription kit (Ambion, Austin, Tex.). The RNA transcripts were treated with 2 U DNase I (Ambion) at 37° C. for 30 minutes, purified by acid phenol/chloroform extraction, followed by isopropanol precipitation, and suspended in diethylpyrocarbonate-treated water. RNA concentration was determined by spectrophotometry by measuring the A260. RNA integrity and size was checked on 1% agarose gel. Transcribed RNA was stored in aliquots at −80° C. until needed.
Huh-7.5 cells were transfected with HCV RNA by electroporation. Briefly, subconfluent Huh7.5 cells were trypsinized, suspended in complete growth medium, and centrifuged at 1,000×g for 5 minutes at 4° C. The cell pellets were then washed twice with ice-cold phosphate-buffered saline (PBS) and suspended at 1.75×10^7 cells/mL in ice-cold PBS. Replicon RNA (5 μg) was mixed with 0.4 mL of cell suspension and transferred to 2 mm gap width electroporation cuvette (EPPENDORF AG, Germany) and pulsed 5 times for 99 μsec at 820 V over 1.1 sec intervals using the ECM 830 electroporator instrument (BTX Harvard Apparatus, Holliston, Mass.). After a 5 minute recovery period at room temperature, cells were transferred to 10 ml complete growth medium, and seeded into 10 cm diameter cell culture dishes. Twenty-four hours after transfection, the medium was replaced with fresh complete DMEM supplemented with 1 mg/ml geneticin (Invitrogen) and the medium was replaced every three to four days with fresh medium containing 1 mg/mL geneticin. Geneticin-resistant colonies were selected for a period of two weeks and expanded in the presence of 250 μg/mL geneticin.
HCV RLuc replicon cells were seeded at a density of 10×10^3 cells per well in 96-well plates and incubated for 4-5 hours to allow the cells to attach to the plate. The compounds dissolved in dimethyl sulfoxide (DMSO) were added at a final concentration of 10 μM (DMSO solvent final concentration was 0.5%) and the cells were incubated for 72 hours at 37° C. under 5% CO2 atmosphere. The effects of compounds on HCV replication were then assessed by measuring the Renilla luciferase activity in compound-treated versus DMSO-treated cells. At the end of the incubation period, the medium was aspirated and the cells were washed with 1×PBS. The Renilla luciferase reporter gene assay was performed using the Renilla luciferase assay kit (PROMEGA, Madison, Wis.) according to the manufacturer's instructions. Briefly, the cells were lysed by addition of 50 μL of 1× Renilla luciferase lysis buffer followed by two cycles of freeze/thaw. The luciferase activity content of the lysate was measured with a FLUOSTAR Omega microplate reader instrument (BMG Labtech, Germany) after injecting 50 μL of luciferase substrate and reading for 5 seconds.
To determine if the above identified compounds might be useful as HCV antiviral agents, they were added to cells harboring HCV subgenomic RNA replicon. The HCV replicon chosen was derived from the same HCV strain (genotype 1b) as the NS3 protein used for screening and enzyme assays. […] 75:4614-4624; Blight, et al. (2002) J. Virol. 76:13001-13014). […]

MBHA DNA substrate = experiment: Modified FID assay, SYBR Green I; format: binding; settings: for DNA binding (%): SYBR Green I-FID, average (±SD) percent bound at 100 μM
Protocol: A modified FID assay, in which ethidium bromide was replaced with SYBR Green I (Invitrogen), was used to estimate a compounds affinity for the MBHA substrate. Reactions were performed as described above except that the DNA substrate was present at 0.32 μM, ethidium bromide was absent, and SYBER Green was present at (0.68 μM). Data were normalized as described above and fit to concentration-response equation using GraphPad Prism software. Titrations with each compound were performed in triplicate, and EC50 values from three independent titrations are reported ±standard deviations.

[2] = Hepatitis C virus, Huh7.5, 10 μM compound, triplicate, average ± SD, read-out: HCV replication (% Inh.)
[3] = Hepatitis C virus, Huh7.5, 10 μM, read-out: Replicon (% Inhibition @ 10 μM)
[4] = SYBR Green, read-out: FID (SG) EC50 (converted)

SMILES | inhibition at 10 µM [1, 2] | inhibition at 10 µM [1, 3] | DNA binding (%) (MBHA DNA substrate) | FID (SG) % Displaced @ 100 μM (MBHA DNA substrate; SYBR Green) | EC50 (MBHA DNA substrate; [4]) | EC50 ([1]; Hepatitis C virus, Huh7.5, HCV Rluc subgenomic replicon cells, read-out: concentration needed to reduce replicon-encoded luciferase by 50%) | combination of compound 24 and telaprevir on replicon expression ([1]; Rluc subgenomic HCV replicon cells) | loss of HCV replicon Rluc activity ([1]; elevated concentrations (>10 μM)) | EC50 (MBHA DNA substrate; FID, mean ± SD, read-out: DNA Binding (SYBR Green I) EC50)
Cc1ccc2nc(-c3ccc4nc(-c5ccc(NC(=O)c6ccc(Cl)c(Cl)c6)cc5)sc4c3)sc2c1S(=O)(=O)O [Compound 18, 2′-(4-(3,4-dichlorobenzamido)phenyl)-6-methyl-[2,6′-bibenzo[d]thiazole]-7-sulfonic acid] | 43 ± 15% | 43 ± 15% | 67 ± 12% | 67 ± 12% | 30 ± 32 µM |  |  |  | 
Cc1ccc2nc(-c3ccc4nc(-c5ccc(NC(=O)c6ccccc6C(F)(F)F)cc5)sc4c3)sc2c1S(=O)(=O)O [Compound 19, 6-methyl-2′-(4-(2-(trifluoromethyl)benzamido)phenyl)-[2,6′-bibenzo[d]thiazole]-7-sulfonic acid] | 0% | 0.3 ± 9% | 30 ± 15% | 30 ± 15% | > 100 µM |  |  |  | 
Cc1ccc2nc(-c3ccc4nc(-c5ccc(NC(=O)c6cccc(C(F)(F)F)c6)cc5)sc4c3)sc2c1S(=O)(=O)O [Compound 20, 6-methyl-2′-(4-(3-(trifluoromethyl)benzamido)phenyl)-[2,6′-bibenzo[d]thiazole]-7-sulfonic acid] | 41 ± 8% | 41 ± 8% | 46 ± 10% | 46 ± 10% | > 100 µM |  |  |  | 
Cc1ccc2nc(-c3ccc4nc(-c5ccc(NC(=O)c6c(F)cccc6C(F)(F)F)cc5)sc4c3)sc2c1S(=O)(=O)O [Compound 21, 2′-(4-(2-fluoro-6-(trifluoromethyl)benzamido)phenyl)-6-methyl-[2,6′-bibenzo[d]thiazole]-7-sulfonic acid] | 55 ± 7% | 55 ± 7% | 66 ± 40% | 66 ± 40% | 64 ± 34 µM |  |  |  | 
Cc1ccc2nc(-c3ccc4nc(-c5ccc(NC(=O)c6cccc(C(F)(F)F)c6F)cc5)sc4c3)sc2c1S(=O)(=O)O [Compound 22, 2′-(4-(2-fluoro-3-(trifluoromethyl)benzamido)phenyl)-6-methyl-[2,6′-bibenzo[d]thiazole]-7-sulfonic acid] | 48 ± 18% | 48 ± 18% | 49 ± 27% | 49 ± 27% | > 100 µM |  |  |  | 
Cc1ccc2nc(-c3ccc4nc(-c5ccc(NC(=O)c6ccc(C(F)(F)F)c(F)c6)cc5)sc4c3)sc2c1S(=O)(=O)O [Compound 23, 2′-(4-(3-fluoro-4-(trifluoromethyl)benzamido)phenyl)-6-methyl-[2,6′-bibenzo[d]thiazole]-7-sulfonic acid] | 48 ± 4% | 48 ± 4% | 66 ± 18% | 66 ± 18% | 28 ± 28 µM |  |  |  | 
Cc1ccc2nc(-c3ccc4nc(-c5ccc(NC(=O)c6cc(C(F)(F)F)cc(C(F)(F)F)c6)cc5)sc4c3)sc2c1S(=O)(=O)O [Compound 24, 2′-(4-(3,5-bis(trifluoromethyl)benzamido)phenyl)-6-methyl-[2,6′-bibenzo[d]thiazole]-7-sulfonic acid] | 60 ± 4% | 60 ± 4% | 43 ± 13% | 43 ± 13% | 86 ± 210 µM | 5 ± 2 µM | No synergy | more than 90% | 
Cc1ccc2nc(-c3ccc4nc(-c5ccc(NC(=O)c6cc(C(F)(F)F)ccc6F)cc5)sc4c3)sc2c1S(=O)(=O)O [Compound 25, 2′-(4-(2-fluoro-5-(trifluoromethyl)benzamido)phenyl)-6-methyl-[2,6′-bibenzo[d]thiazole]-7-sulfonic acid] | 39 ± 4% | 39 ± 4% | 35 ± 26% | 35 ± 26% | > 100 µM |  |  |  | 
Cc1ccc2nc(-c3ccc4nc(-c5ccc(NC(=O)c6cc(F)ccc6C(F)(F)F)cc5)sc4c3)sc2c1S(=O)(=O)O [Compound 26, 2′-(4-(5-fluoro-2-(trifluoromethyl)benzamido)phenyl)-6-methyl-[2,6′-bibenzo[d]thiazole]-7-sulfonic acid] | 61 ± 14% | 61 ± 14% | 35 ± 21% | 35 ± 21% | > 100 µM |  |  |  | 
Cc1ccc2nc(-c3ccc4nc(-c5ccc(NC(=O)c6cc(F)cc(C(F)(F)F)c6)cc5)sc4c3)sc2c1S(=O)(=O)O [Compound 27, 2′-(4-(3-fluoro-5-(trifluoromethyl)benzamido)phenyl)-6-methyl-[2,6′-bibenzo[d]thiazole]-7-sulfonic acid] | 51 ± 9% | 51 ± 9% | 48 ± 17% | 48 ± 17% | > 100 µM |  |  |  | 
Cc1ccc(NC(=O)Nc2ccc(-c3nc4ccc(-c5nc6ccc(C)c(S(=O)(=O)O)c6s5)cc4s3)cc2)cc1 [Compound 28, 6-methyl-2′-(4-(3-(p-tolyl)ureido)phenyl)-[2,6′-bibenzo[d]thiazole]-7-sulfonic acid] | 43 ± 9% | 43 ± 9% | 90 ± 9% | 90 ± 9% | 18 µM |  |  |  | 13 µM
COc1ccc(S(=O)(=O)Nc2ccc(-c3nc4ccc(-c5nc6ccc(C)c(S(=O)(=O)O)c6s5)cc4s3)cc2)cc1 [Compound 29, 2′-(4-(4-methoxyphenylsulfonamido)phenyl)-6-methyl-[2,6′-bibenzo[d]thiazole]-7-sulfonic acid] | 44 ± 5% | 44 ± 5% | 69 ± 4% | 69 ± 4% | 42 µM |  |  |  | 
CC(=O)Nc1ccc(-c2nc3ccc(-c4nc5ccc(C)c(S(=O)(=O)O)c5s4)cc3s2)cc1 [Compound 30, 2′-(4-acetamidophenyl)-6-methyl-[2,6′-bibenzo[d]thiazole]-7-sulfonic acid] | 1 ± 12% | 26 ± 21% | 48 ± 5% | 48 ± 5% | > 100 µM |  |  |  | 
Cc1ccc2nc(-c3ccc4nc(-c5ccc(NC(=O)c6cccnc6)cc5)sc4c3)sc2c1S(=O)(=O)O [Compound 31, 6-methyl-2′-(4-(nicotinamido)phenyl)-[2,6′-bibenzo[d]thiazole]-7-sulfonic acid] | 51 ± 22% | 51 ± 22% | 15 ± 10% | 15 ± 10% | > 100 µM |  |  |  | 
Cc1ccc2nc(-c3ccc4nc(-c5ccc(NC(=O)c6ccncc6)cc5)sc4c3)sc2c1S(=O)(=O)O [Compound 32, 2′-(4-(isonicotinamido)phenyl)-6-methyl-[2,6′-bibenzo[d]thiazole]-7-sulfonic acid] | 59 ± 13% | 59 ± 13% | 19 ± 7% | 19 ± 7% | > 100 µM |  |  |  | 
